The source of these data is PMC7893915, “Assessing cross-resistance within the pyrethroids in terms of their interactions with key cytochrome P450 enzymes and resistance in vector populations” (Parasites & Vectors, 2021).

One data set has as its system Helicoverpa armigera. Also noted: method as in PMID 17685437. The note with it: pyrethroids with a polyfluorobenzyl group instead of the phenoxybenzyl group; ref [48]; cited from earlier work.
The next data set deals with Ae. aegypti. The data set is described as follows: WHO adult susceptibility test on field samples, Ae. aegypti. It is filed as in vivo, Aedes aegypti. The following applies: standard diagnostic doses. From the text: The analyses conducted using data from An. gambiae (s.l.) samples were repeated using data from the An. funestus subgroup, An. arabiensis, An. coluzzii, An. funestus and An. gambiae samples (Additional file 2). The same approach was also used for susceptibility test data from Aedes albopictus and Ae. aegypti to investigate whether the same relationships could be detected in these vectors of arboviruses, as detailed in Additional file 3.
Additional File 3: Cross-resistance to pyrethroids within wild populations of Aedes vectors […]
If structural diversity within the pyrethroids is also associated with divergence in resistance within the Aedes vectors of arboviruses, this would lend weight to the findings for malaria vectors presented in the main manusc ript. Like the Anopheles vectors, target-site mutations and metabolic resistance are thought to be the main resistance mechanisms in Aedes mosquitoes. At least ten mutations in the Aedes aegypti Vgsc gene have been identified and the most widespread mutation, […]
mutations and is also associated with DDT resistance. More recently, the V1016G mutation has been found in Ae. albopictus in Viet Nam and Italy, and both this allele and the F1534C and F1534S […]
expression of cytochrome P450s has also been implicated in pyrethroid resistance within Aedes mosquitoes and there is evidence that metabolic resistance can confer cross -resistance to multiple pyrethroids. For example, over-expression of CYP9J28 is associated with metabolic resistance to […]
target site- and P450-mediated resistance in Ae. aegypti strains found variation in resistance to seven pyrethroids and hypothesised that some patterns of resistance could be linked to structural differences, but also noted that general conclusions are challenging to make without a greater number of compounds with a single modification to compare. No studies of structure activity relationships using a wide range of pyrethroids and P450s from Aedes mosquitoes have been conducted to-date, but data on resistance in wild populations are available. A wider range of pyrethroids are more typically tested by studies of resistance in Aedes vectors, compared to Anopheles vectors, although these studies are also more varied in terms of diagnostic dose, bioass ay method and life cycle stage, making comparisons across studies difficult. Here we selected studies that used a common experimental design and investigated correlations in resistance to pairs of pyrethroids mirroring part of the work on Anopheles vectors presented in the main manuscript.
We identified all instances within a public insecticide resistance database where an Aedes field sample had been subdivided among tests for different pyrethroids. We then identified the most commonly used bioassay type across the new pyrethroid dataset, which was the WHO adult susceptibility test as described for malaria vectors, and the most commonly used diagnostic dose for […]
each compound (Table S2). […]
removed. Paired results were then extracted, and the mean values for the Pearson’s correlation coefficient were calculated for each pyrethroid pair using 1,000 bootstaps in SPSS Statistics v25.
Table S5. Diagnostic doses and data volumes for each pyrethroid.
Pyrethroid Most common dose Number of data points
The number of data points available for each pyrethroid from an Ae. aegypti sample that was used to test at least one other pyrethroid, using standard WHO susceptibility tests and standard diagnostic doses, is given.

A further data set relates to Anopheles sinensis. The arrangement: method as in PMID 24159535. The following applies: resistance ratios using LC50 values from a susceptible strain; most susceptible to bifenthrin, cyfluthrin and etofenprox, in that order; ref [55]; cited from earlier work.
Another data set relates to Gambiae Complex. The note with it: ID 100156; F0, larval collection, 5/2009-4/2010, Chano, Ethiopia; WHO Bioassay 1998; ref Massebo F et al. Parasites Vectors. 2013;6; cited from earlier work.
Data set [1] has as its system An. funestus strain, FUMOZ-R. The arrangement: method as in PMID 26930058. The note with it: strain with upregulated P450 levels without any target-site mutations; ref [47]; cited from earlier work.

`Cc1c(F)c(F)c(COC(=O)[C@@H]2[C@H](/C=C(\Cl)C(F)(F)F)C2(C)C)c(F)c1F` (racemic) [tefluthrin]: the “effect on cross-resistance, in words” value in the data set on Helicoverpa armigera is “overcame most of this resistance”.
Consider `CC1(C)C(C=C(Cl)Cl)C1C(=O)OC(C#N)c1ccc(F)c(Oc2ccccc2)c1` (stereo not drawn) [cyfluthrin], for which the “Mean percent mortality (SE)” value with Ae. aegypti (Pair 2 cyfluthrin vs etofenprox, N 22 paired Ae. aegypti samples) is 87.78 (3.56) percent; with Ae. aegypti (Pair 5 permethrin vs cyfluthrin, N 79 paired Ae. aegypti samples), 89.27 (1.61) percent; in the data set with Ae. aegypti (Pair 7 λ-cyhalothrin vs cyfluthrin, N 25 paired Ae. aegypti samples), 85.01 (3.81) percent; in the data set with Ae. aegypti (Pair 10 deltamethrin vs cyfluthrin, N 72 paired Ae. aegypti samples) it was 88.58 (1.73) percent. Moreover, the “susceptibility of larvae, rank in words” value in the data set on Anopheles sinensis was “most susceptible”. In the data set on Gambiae Complex, the mortality is 50.
As to `CC1(C)[C@H](C=C(Cl)Cl)[C@H]1C(=O)OCc1c(F)c(F)cc(F)c1F` [transfluthrin], the “effectiveness with or without piperonyl butoxide (PBO), in words” value in data set [1] is listed as “effective in the absence of the generic P450 inhibitor”. In the data set on Helicoverpa armigera, the “effect on cross-resistance, in words” value was “overcame most of this resistance”.
